Consider 44 molecules from US8802720B2, “Acylamino-substituted fused cyclopentanecarboxylic acid derivatives and their use as pharmaceuticals” (SANOFI, priority 2008, dated 2014).

pIC50: −log10 of the molar value.

The target of the test is human Edg-2 receptor (LPA1 receptor) (Homo sapiens, UniProt Q92633). As to the kind of experiment: Edg-2 receptor inhibition by FLIPR calcium fluorescence measurement (LPA-mediated calcium liberation). The test is classed as cell-based. The note with it: CHO cells stably overexpressing human Edg-2 receptor; LPA 18:1 100 nM; fluo-4 fluorescence; triplicate; read-out: Inhibitory concentrations IC50 for inhibition of the Edg-2 receptor. The protocol: A) Determination of Edg-2 Receptor Inhibition by Fluorescence Imaging Plate Reader (FLIPR) Measurements
Chain of human Edg-2 receptor (LPA1 receptor) (Q92633 whole entry): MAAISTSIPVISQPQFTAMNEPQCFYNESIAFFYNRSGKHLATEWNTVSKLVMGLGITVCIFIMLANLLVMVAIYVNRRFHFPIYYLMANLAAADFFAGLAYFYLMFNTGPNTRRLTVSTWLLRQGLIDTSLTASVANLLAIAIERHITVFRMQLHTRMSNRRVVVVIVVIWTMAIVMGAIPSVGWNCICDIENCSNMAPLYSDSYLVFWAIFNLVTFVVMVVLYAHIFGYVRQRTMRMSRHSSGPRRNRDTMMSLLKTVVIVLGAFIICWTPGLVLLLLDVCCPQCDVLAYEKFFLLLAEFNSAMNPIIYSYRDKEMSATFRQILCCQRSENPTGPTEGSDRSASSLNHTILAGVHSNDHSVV
The inhibition of the Edg-2 receptor (LPA1 receptor) by the compounds of the invention was quantified by the inhibitory effect on the LPA-mediated calcium liberation in a cell-based calcium fluorescence assay by use of Chinese hamster ovarian (CHO) cells in which the human Edg-2 receptor was stably overexpressed (FIp-In system, Invitrogen). […] Changes in intracellular calcium were determined by fluorescence measurement with the calcium-sensitive dye fluo-4 (Invitrogen) in a fluorescence imaging plate reader (FLIPR, […]).
CHO cells stably overexpressing the human Edg-2 receptor were seeded (40.000 per well) in black clear-bottomed poly-D-lysine-coated 96 well plates (Becton Dickinson, Biocoat cellware) approximately 18-24 h prior to the experiments. Cells were grown in an incubator at 37° C., 5% carbon dioxide and 95% humidity in cell culture media based on F-12 glutamax media (Gibco, #31765) supplemented with 1% (vol/vol) penicilline/streptomycine (PAN, #P06-07100), 10% (vol/vol) fetal calf serum (FCS, PAA, #A15-151) and hygromycin B (Invitrogen, #10687-010) 300 mg/l (final concentrations).
Prior to the FLIPR experiment, cells were loaded with fluo-4 acetoxymethyl ester (fluo-4 AM, Invitrogen, #F14202) for 60 min in an incubator at 37° C., 5% carbon dioxide and 95% humidity in dye-loading buffer consisting of Hanks' Balanced Salt Solution (HBSS, Invitrogen, #14065049) supplemented with fluo-4 AM at 2 μM (all data given for final concentration), Pluronic® F-127 0.05% (vol/vol) (Invitrogen, #P-3000 MP), HEPES 20 mM (Gibco, #15630), probenecid 2.5 mM (Sigma, #P-8761) and bovine serum albumin 0.05% (BSA, Sigma, #A-6003), adjusted to pH 7.5 with sodium hydroxide. During cell loading, fluo-4 AM is cleaved by intracellular esterase resulting in trapping of the dye fluo-4 within the cells. Loading was terminated by washing of the cells in a cell washer (Tecan Power washer) three times with the buffer specified afore but without fluo-4 AM and BSA. This latter buffer was also used as the buffer in the subsequent cell fluorescence measurements.
The dye-loaded and washed cells were pre-incubated for approximately 5 min with various concentrations of the test compound added as a solution in DMSO (0.3% vol/vol maximum final concentration of DMSO), or with DMSO in the respective concentration only (positive control). Subsequent addition of LPA (18:1, 1-oleoyl-sn-glycerol 3-phosphate; 100 nM final concentration) leads to liberation of intracellular calcium from internal stores resulting in a large transient increase of the fluo-4 fluorescence signal which was monitored over approximately 3 min. The percent inhibition caused by the test compound was determined from the maximum fluorescence response after LPA addition to cells pre-incubated with the compound as compared to the maximum fluorescence response after LPA addition to cells pre-incubated with DMSO only. All fluorescence values were corrected for the baseline fluorescence values obtained with cells which were pre-incubated with DMSO only and were not treated with LPA (baseline control). All measurements were performed in triplicate. From the percent inhibitions the inhibitory concentration IC50 was determined.

As to `COc1ccc(C(=O)NC2(C(=O)O)Cc3ccccc3C2)cc1-c1cccc(C(F)(F)F)c1` [Example 200], the pIC50 was above 7.00.

Regarding `COc1ccc(C(=O)NC2(C(=O)O)Cc3ccccc3C2)cc1OCCc1cccc(C(C)C)c1` [Example 25], the pIC50 is above 7.00. Consider `CCc1sc(C(=O)NC2(C(=O)O)Cc3ccccc3C2)nc1OCCc1cccc(C)c1` [Example 273, 2-{[5-Ethyl-4-(2-m-tolyl-ethoxy)-thiazole-2-carbonyl]-amino}-indane-2-carboxylic acid], for which the pIC50 was 6.00 to 7.00. As for `COc1ccc(C(=O)NC2(C(=O)O)Cc3ccccc3C2)cc1-c1ccc(Cl)c(Cl)c1` [Example 292], the figure is above 7.00; as for `CCSc1cccc(-c2cc(C(=O)NC3(C(=O)O)Cc4ccccc4C3)cnc2OC)c1` [Example 233], above 7.00; as for `COc1ccc(C(=O)NC2(C(=O)O)Cc3ccccc3C2)cc1OCCC1CCCCC1` [Example 30], 4.52 to 6.00. As for `COc1ccc(C(=O)NC2(C(=O)O)Cc3ccccc3C2)cc1NCc1cccc(Cl)c1` [Example 123], the figure is 4.52 to 6.00; as for `COc1ccc(C(=O)NC2(C(=O)O)Cc3ccccc3C2)cc1OCCC1CCN(Cc2ccccc2)CC1` [Example 66], 4.52 to 6.00; as for `COc1ccc(C(=O)NC2(C(=O)O)Cc3ccccc3C2)cc1OCc1ccc(C(C)(C)C)cc1` [Example 40], 4.52 to 6.00.

For `COc1ncc(C(=O)NC2(C(=O)O)Cc3ccccc3C2)cc1-c1cccc(C(C)C)c1` [Example 221, 2-{[5-(3-Isopropyl-phenyl)-6-methoxy-pyridine-3-carbonyl]-amino}-indane-2-carboxylic acid], the pIC50 was above 7.00.

On to `COc1ccc(C(=O)NC2(C(=O)O)Cc3ccccc3C2O)cc1OCCc1cccc(C)c1` (single isomer, unassigned) [Example 220, 1-Hydroxy-2-[4-methoxy-3-(2-m-tolyl-ethoxy)-benzoylamino]-indane-2-carboxylic acid], for which the pIC50 was above 7.00. As for `COc1ccc(C(=O)NC2(C(=O)O)Cc3ccccc3C2)cc1OCc1cc(C)ccc1C` [Example 65], the figure is 4.52 to 6.00; as for `COc1ccc(C(=O)NC2(C(=O)O)Cc3ccccc3C2)cc1OS(=O)(=O)c1ccccc1C` [Example 112], 4.52 to 6.00.

As to `Cc1cccc(CCOc2cc(C(=O)NC3(C(=O)O)Cc4ccccc4C3)ccc2OCCN(C)C)c1` [Example 265], the pIC50 was 6.00 to 7.00. As for `COc1ccc(C(=O)NC2(C(=O)O)Cc3ccccc3C2)cc1NCCc1ccccc1` [Example 122, 2-[3-[2-phenyl-ethylamino)-4-methoxy-benzoylamino)-indane-2-carboxylic acid], the figure is 6.00 to 7.00. As for `COc1ccc(C(=O)NC2(C(=O)O)Cc3ccccc3C2)cc1OCCc1c[nH]c2ccccc12` [Example 32], the figure is 4.52 to 6.00; as for `COc1ccc(C(=O)NC2(C(=O)O)Cc3ccccc3C2)cc1OC(C)Cc1ccccc1` (centres unmarked) [Example 142], 4.52 to 6.00; as for `COc1cc([N+](=O)[O-])c(C(=O)NC2(C(=O)O)Cc3ccccc3C2)cc1OCCc1cccc(Cl)c1` [Example 103, 2-{5-[2-(3-Chloro-phenyl)-ethoxy]-4-methoxy-2-nitro-benzoylamino}-indane-2-carboxylic acid], 4.52 to 6.00. As for `COc1ccc(C(=O)NC2(C(=O)O)Cc3ccccc3C2)cc1-c1cccc(OC(C)C)c1` [Example 319], the figure is 6.00 to 7.00; as for `COc1ccc(C(=O)NC2(C(=O)O)Cc3ccccc3C2)cc1OCc1c(C)noc1C` [Example 88], 4.52 to 6.00. For the molecule `COc1ccc(C(=O)NC2(C(=O)O)Cc3ccccc3C2)cc1OCCC1=CC[C@H]2C[C@@H]1C2(C)C` [Example 81], the pIC50 was above 7.00.

Take `COc1ccc(C(=O)NC2(C(=O)O)Cc3ccccc3C2)cc1-c1cc(F)cc(C(F)(F)F)c1` [Example 337]: the pIC50 is above 7.00. In the case of `O=C(NC1(C(=O)O)Cc2ccccc2C1)c1ccc(C(F)(F)F)c(OCCc2c(F)cccc2Cl)c1` [Example 187], the pIC50 is above 7.00.

With `COc1ccc(C(=O)NC2(C(=O)O)Cc3cccc(F)c3C2)cc1OCCc1cccc(C)c1` (centres unmarked) [Example 215, 4-Fluoro-2-[4-methoxy-3-(2-m-tolyl-ethoxy)-benzoylamino]-indane-2-carboxylic acid], the pIC50 was above 7.00. As to `O=C(NC1(C(=O)O)Cc2ccccc2C1)c1ccc(C(F)(F)F)c(OCCc2cc(Cl)ccc2Cl)c1` [Example 362, 2-{3-[2-(2,5-Dichloro-phenyl)-ethoxy]-4-trifluoromethyl-benzoylamino}-indane-2-carboxylic acid], the pIC50 was above 7.00. As for `COc1ccc(C(=O)NC2(C(=O)O)Cc3ccccc3C2)cc1C(O)COc1cccc(C)c1` (centres unmarked) [Example 114, 2-[3-(1-Hydroxy-2-m-tolyloxy-ethyl)-4-methoxy-benzoylamino]-indane-2-carboxylic acid], the figure is 4.52 to 6.00; as for `COc1ccc(C(=O)NC2(C(=O)O)Cc3ccccc3C2)cc1OCCc1ccc(C)cc1` [Example 135], 4.52 to 6.00. For the molecule `COc1ccc(C(=O)NC2(C(=O)O)Cc3ccccc3C2)cc1-c1cc(C(F)(F)F)ccc1Cl` [Example 289], the pIC50 was 6.00 to 7.00. Take `O=C(NC1(C(=O)O)Cc2ccccc2C1)c1ccc(Cl)c(OCCc2cccc(C(F)(F)F)c2)c1` [Example 128]: the pIC50 is 6.00 to 7.00.

On to `COc1ccc(C(=O)NC2(C(=O)O)Cc3ccccc3C2)cc1OCCc1ccc(C#N)cc1` [Example 26], for which the pIC50 is 4.52 to 6.00. As for `COc1ccc(C(=O)NC2(C(=O)O)Cc3ccccc3C2)cc1OCCc1cc(Cl)ccc1Cl` [Example 352], the figure is above 7.00; as for `COc1ccc(C(=O)NC2(C(=O)O)Cc3cscc3C2)cc1OCCc1cccc(C)c1` [Example 98, 5-[4-Methoxy-3-(2-m-tolyl-ethoxy)-benzoylamino]-5,6-dihydro-4H-cyclopenta[c]thiophene-5-carboxylic acid], above 7.00; as for `CCOc1ccc(C(=O)NC2(C(=O)O)Cc3ccccc3C2)cc1OCCc1cccc(C)c1` [Example 12, 2-[4-Ethoxy-3-(2-m-tolyl-ethoxy)-benzoylamino]-indane-2-carboxylic acid], above 7.00. Turning to `COc1ccc(C(=O)NC2(C(=O)O)Cc3ccccc3C2)cc1OCc1ccc(-n2ccnc2)cc1` [Example 73], the pIC50 is 4.52 to 6.00. As for `COc1ccc(C(=O)NC2(C(=O)O)Cc3ccccc3C2)cc1-c1ccc(C)c(C)c1` [Example 291], the figure is 6.00 to 7.00; as for `Cc1cccc(CCOc2cccc(C(=O)NC3(C(=O)O)Cc4ccccc4C3)c2)c1` [Example 141], 4.52 to 6.00; as for `COc1ccc(C(=O)NC2(C(=O)O)Cc3ccccc3C2)cc1OCCCC1CC(c2ccccc2)=NO1` (centres unmarked) [Example 53], 4.52 to 6.00. As for `COc1ccc(C(=O)NC2(C(=O)O)Cc3ccccc3C2)cc1-c1cccc(Cl)c1` [Example 198], the figure is above 7.00; as for `COc1ncc(C(=O)NC2(C(=O)O)Cc3ccccc3C2)cc1-c1cccc(OC(F)(F)F)c1` [Example 234], above 7.00; as for `C=CC1CN2CCC1CC2COc1cc(C(=O)NC2(C(=O)O)Cc3ccccc3C2)ccc1OC` (centres unmarked) [Example 58], 4.52 to 6.00. For the molecule `COc1ncc(C(=O)NC2(C(=O)O)Cc3ccccc3C2)cc1OCCc1cccc(C)c1` [Example 208, 2-{[6-Methoxy-5-(2-m-tolyl-ethoxy)-pyridine-3-carbonyl]-amino}-indane-2-carboxylic acid], the pIC50 was above 7.00. As for `COc1ccc(C(=O)NC2(C(=O)O)Cc3ccccc3C2)cc1C(=O)COc1cccc(C)c1` [Example 113, 2-[4-Methoxy-3-(2-m-tolyloxy-acetyl)-benzoylamino]-indane-2-carboxylic acid], the figure is 4.52 to 6.00; as for `COc1ccc(C(=O)NC2(C(=O)O)Cc3ccccc3C2)cc1-c1cccc(C(C)C)c1` [Example 196, 2-[(3′-Isopropyl-6-methoxy-biphenyl-3-carbonyl)-amino]-indane-2-carboxylic acid], above 7.00; as for `COc1ncc(C(=O)NC2(C(=O)O)Cc3ccccc3C2)cc1-c1cccc(NS(=O)(=O)N(C)C)c1` [Example 231], above 7.00.
